The values that follow come from US8207189B2, “Compound having affinity for amyloid” (Nihon Medi-Physics Co., Ltd., priority 2007, dated 2012).

SMILES strings stand for the structures.

The subject of data set [1] is Salmonella typhimurium TA100. Briefly: reverse mutation test (Ames test), TA100. It is filed as cell-based. How it is done:
(§1) In order to examine gene mutagenicity of Compound 3, 5 and 8, reverse mutation test using Salmonella typhimurium TA98 and TA100 (hereinafter referred to as Ames test) was conducted.
(§2) The test was conducted without addition of S9mix and with addition of S9mix. Dimethylsulfoxide (DMSO) was used as a negative control. A positive control was 2-(2-furyl)-3-(5-nitro-2-furyl)acrylamide (hereinafter referred to as AF-2) in case S9mix was not added, and 2-aminoanthracene (hereinafter referred to as 2-AA) in case S9mix was added.
(§3) As a sample solution to be added to a test plate, each compound was dissolved in DMSO to prepare a solution at a concentration of 50 mg/mL, and further, each solution was diluted with DMSO to prepare a solution with 7 dosage (geometric ratio 3). As a sample solution for preparing a sample of positive control, when TA98 was used as a test strain without addition of S9mix, a solution of AF-2 (compound concentration: 1 μg/mL) in DMSO was prepared; when TA100 was used as a test strain without addition of S9mix, a solution of AF-2 (compound concentration: 0.1 μg/mL) in DMSO was prepared; when TA98 was used as a test strain with addition of S9mix, a solution of 2-AA (compound concentration: 5 μg/mL) in DMSO was prepared; and when TA100 was used as a test strain with addition of S9mix, a solution of 2-AA (compound concentration: 10 μg/mL) in DMSO was prepared.
(§4) After each sample solution to be examined and a test strain (TA98 or TA100) were mixed together so as to make the addition amount of each sample to be 0.1 mL/plate, the mixture was multilayered using soft agar on a medium of a test plate, and then incubated at 37° C. for 48 hours. Separately, after each sample solution to be examined, S9mix and a test strain were mixed together so as to make the addition amount of each sample to be 0.1 mL/plate, the mixture was multilayered using soft agar on a medium of a test plate, and then incubated at 37° C. for 48 hours. On the other hand, only DMSO was used as a sample solution to perform the same procedure as above for the negative control.
In general terms: The Ames test uses bacterial strains that need an amino acid and regain growth without it when mutated back.

In data set [2] the test system is Salmonella typhimurium TA98. Briefly: reverse mutation test (Ames test), TA98. It is filed as cell-based. How it is done:
as §1, §2, §3, §4

The conditions of data set [3]: normal mice, [125I]-labeled, cited from earlier work; for transfer into brain: 2 minutes after administration.

Regarding `OCCOc1cccc(-c2cn3cc(I)ccc3n2)c1` [Compound 5, 2-[3′-(2″-hydroxyethoxy)phenyl]-6-iodoimidazo[1,2-a]pyridine], in data set [1], the “Mutagenicity, TA100, With addition of S9mix” value is “Negative” and the “Mutagenicity, TA100, Without addition of S9mix” value was “Negative”. Moreover, in data set [2], the “Mutagenicity, TA98, With addition of S9mix” value is reported as “Negative” and the “Mutagenicity, TA98, Without addition of S9mix” value is listed as “Negative”.
`CN(C)c1ccc(-c2nc3ccc(I)cc3o2)cc1` [IBOX, 6-iodo-2-[4′-(N,N-dimethylamino)phenyl]benzoxazole]: in data set [3], the transfer into brain result is given as “transferred into brain” and the “clearance from normal tissues” value is reported as “insufficient in clearance from normal tissues”.
For `CCOc1ccc(-c2cn3cc(I)ccc3n2)cc1` [Compound 8, 2-(4′-ethoxyphenyl)-6-iodoimidazo[1,2-a]pyridine], in data set [1], the “Mutagenicity, TA100, With addition of S9mix” value is on record as “Negative” and the “Mutagenicity, TA100, Without addition of S9mix” value is on record as “Negative”. Also, in data set [2], the “Mutagenicity, TA98, With addition of S9mix” value was “Negative” and the “Mutagenicity, TA98, Without addition of S9mix” value is on record as “Negative”.
Turning to `CN(C)c1ccc(/C=C/c2ccc(I)cc2)cc1` [m-I-SB, (E)-4-dimethylamino-4′-iodostilbene], in data set [3], the transfer into brain entry is recorded as “transferred into brain” and the “clearance from normal tissues” value is “insufficient in clearance from normal tissues”.
With `OCCOc1ccc(-c2cn3cc(I)ccc3n2)cc1` [Compound 3, 2-[4′-(2″-hydroxyethoxy)phenyl]-6-iodoimidazo[1,2-a]pyridine], in data set [1], the “Mutagenicity, TA100, With addition of S9mix” value is “Negative” and the “Mutagenicity, TA100, Without addition of S9mix” value is listed as “Negative”. Moreover, in data set [2], the “Mutagenicity, TA98, With addition of S9mix” value is recorded as “Negative” and the “Mutagenicity, TA98, Without addition of S9mix” value is “Negative”.
For `CN(C)c1ccc(-c2nc3ccc(I)cc3s2)cc1` [TZDM, 6-iodo-2-[4′-(N,N-dimethylamino)phenyl]benzothiazole], in data set [3], the transfer into brain result was “transferred into brain” and the “clearance from normal tissues” value was “insufficient in clearance from normal tissues”.
